Drawing on patent US9447083B2, “N-acylhydrazone derivatives for selective T cell inhibitor and anti-lymphoid malignancy drug” (CHONG KUN DANG PHARMACEUTICAL CORP., priority 2012, dated 2016), this text covers cytotoxicity for 39 compounds.

The first test concerns Jurkat T cells. As to the kind of experiment: Pro-apoptotic activity on Jurkat T cells (FITC-Annexin V / 7-AAD flow cytometry). The test is classed as cell-based. Conditions: Homo sapiens, 72 hours, cells stained with FITC-Annexin V and 7-AAD among total cells, read-out: Cell Apoptosis Effect to Jurkat T Cell (% in 5 μM). The method, then:
In order to investigate the effects of the prepared compounds, the apoptosis-inducing effects of the compounds on human T cell acute lymphoblastic leukemia cell line, Jurkat T cells, were evaluated in the following manner.
Jurkat T cells cultured in RPMI medium containing 10% fetal bovine serum (FBS) were collected and stained with trypan blue (Sigma). […] Then, the cells were centrifuged at 1200 rpm at room temperature for 5 minutes and re-suspended in 10% FBS-containing RPMI medium at a concentration of 1.5×10^5 cells/mL. 200 μL of the cell suspension was dispensed into each well of a flat bottom 96-well plate (Costar). Then, the cells were treated with 10 μL of the diluted compounds in RPMI medium at final concentrations of […] or 5 μM, and incubated in a 5% CO2 incubator at 37° C. for 72 hours. In a vehicle control group, the cells were treated with 10 μL of RPMI medium containing 1% of dimetylsulfoxide (DMSO, Sigma). The incubated cells were harvested, put into 5-mL FACS tubes (BD Falcon), washed with 1 mL of phosphate buffered saline (PBS), and then re-suspended in 0.1 mL of binding buffer (10 mM Hepes-NaOH, pH 7.4, 140 mM NaCl, […] CaCl2). The suspended cells were stained with fluorescein isothiocyanate (FITC)-Annexin V (BD Biosciences) and 7-amino-actinomycin D (7-AAD, e-Biosciences) at room temperature for 15 minutes. The stained cells were suspended in 0.3 mL of binding buffer and analyzed by a flow cytometer. Apoptosis was determined by the ratio (%) of cells stained with FITC-Annexin V and 7-AAD among the total cells (see Tables 10 and 11).
In general terms: In flow cytometry, cells or beads pass a laser one at a time.
With `Cc1cc(C)c(OCC(=O)N/N=C/c2ccc3[nH]ccc3c2)c(-c2cccnc2)c1` [Compound 184, (E)-N′-((1H-indol-5-yl)methylene)-2-(2,4-dimethyl-6-(pyridin-3-yl)phenoxy)acetohydrazide], the cytotoxicity at 5 µM was determined as 100%.

In the case of `Cc1ncccc1OCC(=O)N/N=C/c1cccc2[nH]ccc12` [Compound 187, (E)-N′-((1H-indol-4-yl)methylene)-2-((2-methylpyridin-3-yl)oxy)acetohydrazide], the cytotoxicity at 5 µM turned out to be 100%.

`Cc1ccnc(C)c1OCC(=O)N/N=C/c1cccc2[nH]ccc12` [Compound 190, (E)-N′-((1H-indol-4-yl)methylene)-2-(2,4-dimethylpyridin-3-yloxy)acetohydrazide]: the cytotoxicity at 5 µM was found to be 100%.

Consider `Cc1ccnc(C)c1OCC(=O)N/N=C/c1ccc2cc[nH]c2c1` [Compound 191], for which the cytotoxicity at 5 µM was determined as 100%.

Consider `O=C(COc1ccccc1C(F)(F)F)N/N=C/c1cccc2[nH]ccc12` [Compound 192, (E)-N′-((1H-indol-4-yl)methylene)-2-(2-(trifluoromethyl)phenoxy)acetohydrazide], for which the cytotoxicity at 5 µM came to 90%.

As to `O=C(COc1ccccc1C(F)(F)F)N/N=C/c1ccc2[nH]ccc2c1` [Compound 193], the cytotoxicity at 5 µM was found to be 100%.

Turning to `O=C(COc1ccccc1C(F)(F)F)N/N=C/c1ccc2cc[nH]c2c1` [Compound 194], the cytotoxicity at 5 µM was determined as 100%.

On to `Cc1cc(C)c(OCC(=O)N(CCO)/N=C/c2ccc3cc[nH]c3c2)c(C)c1` [Compound 195, (E)-N′-((1H-indol-6-yl)methylene)-N-(2-hydroxyethyl)-2-(mesityloxy)acetohydrazide], for which the cytotoxicity at 5 µM turned out to be 100%.

Take `O=C(COc1cccnc1Cl)N/N=C/c1cccc2[nH]ccc12` [Compound 196, (E)-N′-((1H-indol-4-yl)methylene)-2-(2-chloropyridin-3-yloxy)acetohydrazide]: the cytotoxicity at 5 µM stood at 100%.

Regarding `Cc1cc(C)c(OCC(=O)N(CCN2CCOCC2)/N=C/c2ccc3cc[nH]c3c2)c(C)c1` [Compound 198], the cytotoxicity at 5 µM was 100%.

For `Cc1cc(C)c(OCC(=O)N(CCN2CCCC2)/N=C/c2ccc3cc[nH]c3c2)c(C)c1` [Compound 201], the cytotoxicity at 5 µM amounted to 100%.

Turning to `Cc1cc(C)c(OCC(=O)N/N=C/c2ccc3[nH]cnc3c2)c(C)c1` [Compound 205], the cytotoxicity at 5 µM worked out at 100%.

Turning to `Cc1cc(C)c(OCC(=O)N/N=C/c2ccc3snnc3c2)c(C)c1` [Compound 206], the cytotoxicity at 5 µM worked out at 100%.

For `Cc1cc(C)c(OCC(=O)N/N=C/c2cccc3[nH]cc(CN4CCC(C)CC4)c23)c(C)c1` [Compound 211], the cytotoxicity at 5 µM turned out to be 100%.

Take `Cc1cc(C)c(OCC(=O)N/N=C/c2ccc3cc[nH]c3c2)c(-c2ccncc2)c1` [Compound 217, (E)-N′-((1H-indol-6-yl)methylene)-2-(2,4-dimethyl-6-(pyridin-4-yl)phenoxy)acetohydrazide]: the cytotoxicity at 5 µM came to 100%.

As to `Cc1cc(C)c(OCC(=O)N/N=C/c2ccc3cc[nH]c3c2)c(-c2ccoc2)c1` [Compound 218, (E)-N′-((1H-indol-6-yl)methylene)-2-(2-(furan-3-yl)-4,6-dimethylphenoxy)acetohydrazide], the cytotoxicity at 5 µM came to 100%.

As to `Cc1cc(CO)cc(C)c1OCC(=O)N/N=C/c1cccc2[nH]ccc12` [Compound 227, (E)-N′-((1H-indol-4-yl)methylene)-2-(4-(hydroxymethyl)-2,6-dimethylphenoxy)acetohydrazide], the cytotoxicity at 5 µM is 90%.

Consider `Cc1cc(CO)cc(C)c1OCC(=O)N/N=C/c1ccc2cc[nH]c2c1` [Compound 228, (E)-N′-((1H-indol-6-yl)methylene)-2-(4-(hydroxymethyl)-2,6-dimethylphenoxy)acetohydrazide], for which the cytotoxicity at 5 µM was found to be 100%.

Take `Cc1cc(N)cc(C)c1OCC(=O)N/N=C/c1cccc2[nH]ccc12` [Compound 232, (E)-N′-((1H-indol-4-yl)methylene)-2-(4-amino-2,6-dimethylphenoxy)acetohydrazide]: the cytotoxicity at 5 µM is 100%.

As to `Cc1cc(C)c(OCC(=O)N(CO)/N=C/c2ccc3cc[nH]c3c2)c(C)c1` [Compound 233, (E)-N′-((1H-indol-6-yl)methylene)-N-(hydroxymethyl)-2-(mesityloxy)acetohydrazide], the cytotoxicity at 5 µM was 100%.

Turning to `Cc1cc(C)c(OCC(=O)N(COC(=O)CN(C)C)/N=C/c2ccc3cc[nH]c3c2)c(C)c1` [Compound 236, (E)-(2-((1H-indol-6-yl)methylene)-1-(2-(mesityloxy)acetyl)hydrazinyl)methyl 2-(dimethylamino)acetate], the cytotoxicity at 5 µM is 100%.

Consider `Cc1cc(C#N)cc(C)c1OCC(=O)N/N=C/c1ccc2cc[nH]c2c1` [Compound 237, (E)-N′-((1H-indol-6-yl)methylene)-2-(4-cyano-2,6-dimethylphenoxy)acetohydrazide], for which the cytotoxicity at 5 µM is 100%.

On to `Cc1cc(C)c(OCC(=O)N(COC(=O)CN(C)C)/N=C/c2cccc3[nH]ccc23)c(C)c1` [Compound 238, (E)-(2-((1H-indol-4-yl)methylene)-1-(2-(mesityloxy)acetyl)hydrazinyl)methyl 2-(dimethylamino)acetate], for which the cytotoxicity at 5 µM came out at 100%.

Take `Cc1cc(C(N)=O)cc(C)c1OCC(=O)N/N=C/c1ccc2cc[nH]c2c1` [Compound 239]: the cytotoxicity at 5 µM turned out to be 100%.

Turning to `CC(=O)N(/N=C/c1ccc2cc[nH]c2c1)C(=O)COc1c(C)cc(C)cc1C` [Compound 243, (E)-N′-((1H-indol-6-yl)methylene)-N-acetyl-2-(mesityloxy)acetohydrazide], the cytotoxicity at 5 µM came to 100%.

Consider `Cc1cc(C)c(OCC(=O)N(CO)/N=C/c2cccc3[nH]ccc23)c(C)c1` [Compound 244, (E)-N′-((1H-indol-4-yl)methylene)-N-(hydroxymethyl)-2-(mesityloxy)acetohydrazide], for which the cytotoxicity at 5 µM is 100%.

For the compound `Cc1cc(C)c(OCC(=O)N(COC(=O)c2ccc(CN3CCOCC3)cc2)/N=C/c2cccc3[nH]ccc23)c(C)c1` [Compound 245, (E)-(2-((1H-indol-4-yl)methylene)-1-(2-(mesityloxy)acetyl)hydrazinyl)methyl 4-(morpholinomethyl)benzoate], the cytotoxicity at 5 µM is 100%.

With `CC(=O)OCN(/N=C/c1ccc2cc[nH]c2c1)C(=O)COc1c(C)cc(C)cc1C` [Compound 252, (E)-(2-((1H-indol-6-yl)methylene)-1-(2-(mesityloxy)acetyl)hydrazinyl)methyl acetate], the cytotoxicity at 5 µM is 100%.

Take `Cc1cc(C)c(OCC(=O)N/N=C/c2ccc3c(Br)c[nH]c3c2)c(C)c1` [Compound 256]: the cytotoxicity at 5 µM came to 100%.

Regarding `Cc1cccc(C)c1OCC(=O)N/N=C/c1ccc2cc[nH]c2c1` [Compound 258, (E)-N′-((1H-indol-6-yl)methylene)-2-(2,6-dimethylphenoxy)acetohydrazide], the cytotoxicity at 5 µM worked out at 100%.

The same test, now with this note: Homo sapiens, 72 hours, cells stained with FITC-Annexin V and 7-AAD among total cells, read-out: Jurkat T Cell Apoptosis (% in 5 μM).
As for `Cc1cc(C)c(OCC(=O)N/N=C/c2cccc3[nH]ccc23)c(Br)c1` [Compound 259, (E)-N′-((1H-indol-4-yl)methylene)-2-(2-bromo-4,6-dimethylphenoxy)acetohydrazide], the cytotoxicity at 5 µM stood at 100%.

On to `Cc1cc(C)c(OCC(=O)N/N=C/c2ccc3cc[nH]c3c2)c(Br)c1` [Compound 260, (E)-N′-((1H-indol-6-yl)methylene)-2-(2-bromo-4,6-dimethylphenoxy)acetohydrazide], for which the cytotoxicity at 5 µM worked out at 100%.

As to `Cc1cc(C)c(OCC(=O)N(COC(=O)c2ccc(CN3CCOCC3)cc2)/N=C/c2ccc3cc[nH]c3c2)c(C)c1` [Compound 272, (E)-(2-((1H-indol-6-yl)methylene)-1-(2-(mesityloxy)acetyl)hydrazinyl)methyl 4-(morpholinomethyl)benzoate], the cytotoxicity at 5 µM was 100%.

Regarding `Cc1ccccc1OCC(=O)N/N=C/c1ccc2cc[nH]c2c1` [Compound 279], the cytotoxicity at 5 µM came to 100%.

In the case of `Cc1cc(C)c(OCC(=O)N/N=C/c2cccc3c2ccn3S(=O)(=O)c2ccccc2)c(C)c1` [Compound 280, (E)-2-(mesityloxy)-N′-((1-(phenylsulfonyl)-1H-indol-4-yl)methylene)acetohydrazide], the cytotoxicity at 5 µM was 100%.

In the case of `Cc1cc(OCC(=O)N/N=C/c2cccc3[nH]ccc23)cc(C)n1` [Compound 286, (E)-N′-((1H-indol-4-yl)methylene)-2-(2,6-dimethylpyridin-4-yloxy)acetohydrazide], the cytotoxicity at 5 µM amounted to 100%.

For the compound `Cc1cc(OCC(=O)N/N=C/c2ccc3cc[nH]c3c2)cc(C)n1` [Compound 288], the cytotoxicity at 5 µM was 90%.

As for `Cc1ncccc1OCC(=O)N(CO)/N=C/c1cccc2[nH]ccc12` [Compound 289], the cytotoxicity at 5 µM came out at 100%.

`Cc1cc(F)ccc1OCC(=O)N/N=C/c1ccc2cc[nH]c2c1` [Compound 291, (E)-N′-((1H-indol-6-yl)methylene)-2-(4-fluoro-2-methylphenoxy)acetohydrazide]: the cytotoxicity at 5 µM amounted to 100%.
